Test results as given in ChEMBL document CHEMBL1201862, “PubChem BioAssay data set” (2004).
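Values below derive from 48-hour exposures of cells grown in 96-well plates, with endpoints linearly interpolated between the two concentrations bracketing the appropriate inhibition level. At the GI50, growth is halved.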 The source made the active and inactive calls. No stated cut-off is given here; in the data, active = GI50 up to about 1.1 µM and inactive = higher.

Tests used:
Assay in all cases: inhibition of tumour cell growth, NCI panel, 48 h
BT-549 = system: BT-549
UACC-257 = system: UACC-257
EKVX = system: EKVX
M14 = system: M14
NCI/ADR-RES = system: NCI/ADR-RES
UO-31 = system: UO-31
CAKI-1 = system: CAKI-1
A549 = system: A549
MDA-N = system: MDA-N
SR = system: SR
HOP-62 = system: HOP-62
U-251 = system: U-251
SK-OV-3 = system: SK-OV-3
SNB-75 = system: SNB-75
HCT-15 = system: HCT-15
LOX IMVI = system: LOX IMVI
HCT-116 = system: HCT-116
COLO 205 = system: COLO 205
T47D = system: T47D

Structure (SMILES) | GI50 (BT-549) | GI50 (UACC-257) | GI50 (EKVX) | GI50 (M14) | GI50 (NCI/ADR-RES) | GI50 (UO-31) | GI50 (CAKI-1) | GI50 (A549) | GI50 (MDA-N) | GI50 (SR) | GI50 (HOP-62) | GI50 (U-251) | GI50 (SK-OV-3) | GI50 (SNB-75) | GI50 (HCT-15) [µM] | GI50 (LOX IMVI) | GI50 (HCT-116) | GI50 (COLO 205) | GI50 (T47D)
Cc1cc(C(=O)CSC(=S)SC(C)(C)C)ccc1Cl | 21.9 µM (inactive) | 18.2 µM (inactive) | 24.5 µM (inactive) | 16.4 µM (inactive) | 19.8 µM (inactive) | 18.1 µM (inactive) | 34.2 µM (inactive) | 20.9 µM (inactive) | 15.8 µM (inactive) | 16.9 µM (inactive) | 17.4 µM (inactive) | 15.1 µM (inactive) | 34.1 µM (inactive) | 18.2 µM (inactive) | 22.3 | 19.9 µM (inactive) | 18.7 µM (inactive) | 18.4 µM (inactive) | 
O=C(O)c1cc(CC2Cc3cc4c(cc3C2=O)CCC4)cc2c1CCC2 (stereo unspecified) | > 100 µM (inactive) | > 100 µM (inactive) | > 100 µM (inactive) | > 100 µM (inactive) | > 100 µM (inactive) | > 100 µM (inactive) | > 100 µM (inactive) | > 100 µM (inactive) |  | 67.1 µM (inactive) | > 100 µM (inactive) | 82.2 µM (inactive) | > 100 µM (inactive) | 35.6 µM (inactive) | 60.7 | 84.1 µM (inactive) | 72.1 µM (inactive) | > 100 µM (inactive) | > 100 µM (inactive)
O=C(Nc1ccc(N=C=S)cc1Cl)c1cc(Br)cc(Br)c1O |  | 21.4 µM (inactive) |  | 33.7 µM (inactive) | 24.2 µM (inactive) | 30.3 µM (inactive) | 43.1 µM (inactive) | 25.8 µM (inactive) |  | 28.6 µM (inactive) | 30.6 µM (inactive) | 22.2 µM (inactive) | 42.9 µM (inactive) | 31.1 µM (inactive) | 16.4 |  | 16.3 µM (inactive) | 27.2 µM (inactive) | 39.7 µM (inactive)
CCOC(=O)C1(C(=O)OCC)C[C@@H](C)[C@@H](O)C1 |  | > 100 µM (inactive) | > 100 µM (inactive) | > 100 µM (inactive) | > 100 µM (inactive) | > 100 µM (inactive) | > 100 µM (inactive) | > 100 µM (inactive) | > 100 µM (inactive) | > 100 µM (inactive) | > 100 µM (inactive) | > 100 µM (inactive) | > 100 µM (inactive) | 75.7 µM (inactive) | > 100 | > 100 µM (inactive) | > 100 µM (inactive) | > 100 µM (inactive) | 
c1csc(-c2ccc(-c3ccc(-c4ccc(-c5cccs5)s4)s3)s2)c1 |  | > 100 µM (inactive) | > 100 µM (inactive) | 26.9 µM (inactive) | > 100 µM (inactive) | > 100 µM (inactive) | > 100 µM (inactive) |  |  | 35.7 µM (inactive) | 34 µM (inactive) | > 100 µM (inactive) | > 100 µM (inactive) | > 100 µM (inactive) | > 100 |  | > 100 µM (inactive) | > 100 µM (inactive) | 
CC(=O)C1CCN(c2ccccc2)C1 (stereo unspecified) |  | > 100 µM (inactive) | > 100 µM (inactive) | > 100 µM (inactive) |  | > 100 µM (inactive) | > 100 µM (inactive) | > 100 µM (inactive) |  | > 100 µM (inactive) | > 100 µM (inactive) | > 100 µM (inactive) | > 100 µM (inactive) | > 100 µM (inactive) |  |  | > 100 µM (inactive) |  | 
Oc1cc(-c2cccc(Cl)c2)nc2ncccc12 | 7.33 µM (inactive) | 84.3 µM (inactive) |  | 0.0845 µM (active) | 0.221 µM (active) | 2.52 µM (inactive) | 0.101 µM (active) | 0.126 µM (active) | 0.0132 µM (active) | 0.0378 µM (active) | 0.253 µM (active) | 0.106 µM (active) | 0.163 µM (active) | 0.971 µM (active) | 0.0489 | 0.133 µM (active) | 0.0312 µM (active) | 0.0782 µM (active) | 
Cc1ccc(N/N=C/C2=CC(C)(C)C(C#N)(C#N)C(O)=C2C#N)cc1 |  | 38.8 µM (inactive) | 61.1 µM (inactive) | 49.4 µM (inactive) | 56 µM (inactive) | 37.7 µM (inactive) | 31.6 µM (inactive) | 36.5 µM (inactive) | 54.8 µM (inactive) | 14.3 µM (inactive) | 78.3 µM (inactive) |  | 58.2 µM (inactive) | 45.5 µM (inactive) |  | 65.8 µM (inactive) | 35.4 µM (inactive) | 26.9 µM (inactive) | 67.3 µM (inactive)
Cc1cc(S(=O)(=O)[N-]/C(=N/S(=O)(=O)c2cc(Cl)sc2Cl)[n+]2ccc(N(C)C)cc2)c(S)cc1Cl |  | > 100 µM (inactive) | > 100 µM (inactive) | 30.3 µM (inactive) | > 100 µM (inactive) | 23.2 µM (inactive) | 60.3 µM (inactive) |  | 34 µM (inactive) | 39.4 µM (inactive) | 42.3 µM (inactive) | 45.2 µM (inactive) | 42.9 µM (inactive) |  | 42.7 | > 100 µM (inactive) | 24.1 µM (inactive) |  | > 100 µM (inactive)
CCCCCCCCCCCCCCCCOP(=O)(O)OCC(N)C(=O)O (stereo unspecified) |  | 52.5 µM (inactive) | 54.1 µM (inactive) | 24.8 µM (inactive) | 33.3 µM (inactive) | 12.9 µM (inactive) | 13 µM (inactive) | 21.9 µM (inactive) | 23.5 µM (inactive) | 33 µM (inactive) | 25 µM (inactive) | 12.9 µM (inactive) | 21.8 µM (inactive) | 25.4 µM (inactive) | 27.7 | 13.5 µM (inactive) | 12.5 µM (inactive) | 20.7 µM (inactive) | 28.2 µM (inactive)
C=C1C(=O)C23CC1C[C@H](OC(C)=O)C2C1(C)C(OC(C)=O)C[C@H](O)C(C)(C)[C@H]1C(O)[C@@H]3OC(C)=O (stereo partly specified) | 3.03 µM (inactive) | 11.9 µM (inactive) | 13.1 µM (inactive) | 6.5 µM (inactive) | > 100 µM (inactive) | 16.9 µM (inactive) | 16.4 µM (inactive) | 22.9 µM (inactive) |  | 7.48 µM (inactive) | 18.9 µM (inactive) | 15.3 µM (inactive) | 24.8 µM (inactive) | 18.8 µM (inactive) | 10.4 | 14.9 µM (inactive) | 5.02 µM (inactive) | 4.13 µM (inactive) | 6.67 µM (inactive)
Cc1ccc(S(=O)(=O)N/N=C/c2oc(-c3ccccc3Cl)c(-c3ccccc3Cl)c2[N+](=O)[O-])cc1 |  | 37.2 µM (inactive) | 31.5 µM (inactive) | 31 µM (inactive) |  | 17.8 µM (inactive) | 36.9 µM (inactive) | 24.2 µM (inactive) |  | 7.64 µM (inactive) | 17.6 µM (inactive) |  | 45 µM (inactive) |  |  |  | 6.37 µM (inactive) | 28.1 µM (inactive) | 
CCOC(=O)c1cc(C)nc2c1c(=O)n(-c1ccccc1)c(=O)n2CCCCN1CCN(c2ccccc2)CC1 | > 100 µM (inactive) | 27.8 µM (inactive) | > 100 µM (inactive) | 38.9 µM (inactive) | > 100 µM (inactive) | 6.17 µM (inactive) | 1.53 µM (inactive) | > 100 µM (inactive) |  | 19 µM (inactive) | > 100 µM (inactive) | > 100 µM (inactive) | > 100 µM (inactive) | > 100 µM (inactive) | 49.3 | 61.1 µM (inactive) | > 100 µM (inactive) | 60 µM (inactive) | 24.3 µM (inactive)
CC(C)(C)[Si](C)(C)OCC1OC(n2cnc3c(=O)[nH]c(N)nc32)C(O[Si](C)(C)C(C)(C)C)C1O[Si](C)(C)C(C)(C)C (stereo unspecified) |  | 1.78 µM (inactive) | 19.5 µM (inactive) | 1.5 µM (inactive) | > 100 µM (inactive) | 5.11 µM (inactive) | 10.9 µM (inactive) | 2.34 µM (inactive) | 1.57 µM (inactive) | 2.39 µM (inactive) | 2.64 µM (inactive) | 1.78 µM (inactive) | 1.95 µM (inactive) | 3.11 µM (inactive) | > 46.9 | 2.09 µM (inactive) | 1.49 µM (inactive) | 1.72 µM (inactive) | 2.09 µM (inactive)
COc1ccc(N2C(=O)C(=O)N(c3ccccc3[N+](=O)[O-])C2=S)cc1 |  | 17.1 µM (inactive) | 30.5 µM (inactive) |  | 23.5 µM (inactive) | 34 µM (inactive) | 40 µM (inactive) | 38.5 µM (inactive) | 27 µM (inactive) | 47.3 µM (inactive) | 50 µM (inactive) | 37.8 µM (inactive) | 25.1 µM (inactive) | 27.1 µM (inactive) | 18.2 | 16.6 µM (inactive) | 28.6 µM (inactive) | 19.4 µM (inactive) | 22.6 µM (inactive)
CC(O)CCCCC(O)CCC[C@H](O)[C@H]1CCC([C@H]2CCC([C@@H](O)CCCCCCCCCCCCC3=C[C@H](C)OC3=O)O2)O1 (stereo partly specified) | 11.2 µM (inactive) | 9.33 µM (inactive) | 8.15 µM (inactive) | 11.4 µM (inactive) | 2.44 µM (inactive) | 9.44 µM (inactive) | 9.84 µM (inactive) | 7.94 µM (inactive) | 10.6 µM (inactive) | 0.0075 µM (active) | 10.6 µM (inactive) | 10.8 µM (inactive) | 11.7 µM (inactive) | 9.12 µM (inactive) | 14.7 |  | 0.0667 µM (active) | 11.1 µM (inactive) | 
CN(CCc1ccccn1)c1ccc2c(c1)Cc1ccccc1-2 | 14.7 µM (inactive) | 26.2 µM (inactive) | 16.6 µM (inactive) | 26.7 µM (inactive) | 26.9 µM (inactive) | 38.2 µM (inactive) | 61.4 µM (inactive) | 13.6 µM (inactive) |  |  | 16.1 µM (inactive) | 5.35 µM (inactive) | 24.2 µM (inactive) | 17.9 µM (inactive) | 3.43 | 16.3 µM (inactive) | 11.1 µM (inactive) | 15.7 µM (inactive) | 25.2 µM (inactive)
